From patent US20260008784A1 (VASTHERA CO., LTD., priority 2022, published 2026)
Read-outs that look alike come from different tables or passages of the source.

Assays:
[1] = tested on: yeast thioredoxin (Trx)/yeast Trx reductase (TR); test: Peroxidase activity assay (H2O2 reduction, NADPH oxidation); format: biochemical; settings: 50 μM test compound, 3 μM yeast Trx, 1.5 μM yeast TR, 250 μM NADPH, 1.2 mM H2O2, 30° C.; NADPH oxidized per minute
Procedure: Hydrogen peroxide (H2O2)-reducing peroxidase activity of compounds in present invention was performed as follows. Peroxyredoxin activity was measured in reaction mixture (200 μL volume) containing 50 mM HEPES buffer (pH 7.0), 1 mM EDTA, 250 μM NADPH, 3 μM yeast thioredoxin (Trx), 1.5 μM yeast Trx reductase (TR), 50 μM test compound, and 1.2 mM H2O2.
Reaction was initiated by adding H2O2 and the decrease in absorbance at 340 nm was measured using Agilent UV8453 spectrophotometry (Hewlett Packard, USA) at 30° C. for 12 min. Initial reaction rate is the amount of NADPH oxidized per minute calculated from slope of the linear part of curve.
The H2O2-reducing peroxidase activity of the test compounds in present invention was measured in a reaction mixture containing thioredoxin (Trx)/thioredoxin reductase (TR), respectively.

in vitro [2] = test: in vitro
Procedure: Cytotoxicity tests were performed against vascular endothelial cells, vascular smooth muscle cells and hepatocytes. After treatment with ascending concentrations of each compound, the concentration of test compound corresponding to 50% cell viability (CC50) was measured.

in vitro [3] = settings: human
Procedure: For cytotoxicity analysis, human aortic endothelial cells (HAEC) and smooth muscle cells (HASMC) were seeded in a 96-well culture plate at density of 4000 cells/well in a final volume of 100 μL. Cells were cultured for 24 h and serum-starved for an additional 18 h. Test compounds were serially diluted with EBM-2 culture medium, added to the plate at 100 μL/well, and further incubated for 24 h. The number of viable cells was measured using the WST-1 cell viability assay kit (Roche Diagnostics, USA). Cell number was expressed as absorbance values at 450 nm after subtracting the turbidity value at 600 nm. The absorbance values from three replicate wells were averaged.
After treatment with ascending concentrations of each compound, the concentration of test compound corresponding to 50% cell viability (CC50) was measured.

NIH-3T3 cells = test: Intracellular H2O2-eliminating activity (CM-H2DCF-DA fluorescence); format: cell-based; settings: Mus musculus, NIH3T3, glucose oxidase, concentration at 50% reduction of intracellular H2O2
Procedure: The activity of test compounds in present invention to eliminate intracellular H2O2 was measured as follows. NIH-3T3 cells (ATCC) were seeded in a 35-mm culture dish at 2×10^5 cells/well. After culture for 24 hours, cells were serum-starved with phenol red free-basal DMEM containing 0.5% FBS for 6 h. Starved NIH 3T3 cells were pretreated with compounds diluted with phenol red free-basal DMEM at concentrations ([…]) for 30 min, followed by treatment with 20 mU of glucose oxidase (Gox) for 30 min. A reactive oxygen species-sensitive fluorescence dye, carboxymethyl-dichlorofluorescein-diacetate (CM-H2DCF-DA), which was prepared in 1 mM DMSO stock and diluted 500 times in phenol red free-basal DMEM, was added to the cells and incubated for 5 min. Then, cells were quickly rinsed with basal medium. Images were taken at excitation 497 nm/emission 518 nm settings using a fluorescence microscope. Three images at 10× magnification per sample were obtained, and fluorescence intensities from 30 or more individual cells per image were averaged.
The intracellular H2O2-eliminating activity of test compounds in present invention was measured using a live-cell imaging fluorescence probe (CM-HaDCF-DA). H2O2-eliminating activity was measured depending on ascending concentrations of the test compound and expressed as the percent of activity compared to the untreated control group. EC50 represents the concentration of test compound at 50% reduction of intracellular H2O2.

[4] = tested on: human aortic smooth muscle cell (HASMC); test: PDGF-induced proliferation assay, HASMC (PrxII siRNA); format: cell-based; settings: for Degree of HASMC proliferation: PDGF-BB 25 ng/mL, percent of untreated control
Procedure: (§1) HASMCs and PASMCs were transfected with a PrxII-specific siRNA using RNAi MAX transfection reagent according to manufacturer's protocol. After 24 hours, transfected cells (3,000 cells/well) were seeded in a 96-well culture plate. At 12 h after seeding, cells were serum-starved for additional 18 h in SmBM basal medium containing 0.5% FBS. Test compounds were serially diluted with the same basal medium containing 0.5% FBS, added to the cells ([…]), and incubated for 2 h. After treatment, cells were placed in fresh SmBM medium containing 0.5% FBS and PDGF-BB (25 ng/mL) for growth factor stimulation and further cultured for 24 h.
(§2) The degree of cell proliferation was measured using the Cell Titer-GLO kit ([…]). Data are the percent of luminescence intensity averaged from three replicate wells versus that of untreated control group.
(§3) In human aortic smooth muscle cell (HASMC) and human pulmonary artery smooth muscle cell (PASMC) in which PrxII was knocked out by transfecting the PrxII siRNA, the ability of test compounds to inhibit the PDGF-induced proliferation of vascular smooth muscle cells was evaluated. In Table 6, the degree of proliferation in the compound-treated groups is expressed as percent of the degree of proliferation in untreated control group. The concentrations of test compounds corresponding to 50% growth inhibition (IC50) is also listed.

[5] = Measurement of redox potential (DTT redox buffers, HPLC); format: physicochemical; settings: DTT(Red)/DTT(Ox) redox buffers, 3 h, 30° C., 50% reduction of test compound
Procedure: A test compound (10 mM) was diluted 20-fold with each redox buffer solution and incubated for 3 h in a 30° C. water bath. Then, compounds were analyzed by HPLC. The area of peaks corresponding to the oxidized and reduced forms of test compound based on specific retention time was calculated and plotted as percent of total peak area against the Nernst equation value (mV) at x-axis. The Nernst equation value corresponding to 50% reduction of test compound was set as the midpoint redox potential value for test compound.
The redox potential values of the test compounds were analyzed based on the potential values established in redox buffer solutions where reduced and oxidized DTT are mixed at various ratios.

[6] = tested on: human pulmonary artery smooth muscle cell (PASMC); test: PDGF-induced proliferation assay, PASMC (PrxII siRNA); format: cell-based; settings: for Degree of PASMC proliferation: PDGF-BB 25 ng/mL, percent of untreated control
Procedure: as §1, §2, §3

[7] = tested on: Tyr 1175 phosphorylation of VEGF receptor-2 (VEGFR2) in HAEC; test: Immunoblot of VEGF-mediated signaling in PrxII knock-down HAEC; format: cell-based, human; settings: HAECs depleted of PrxII expression, FIG. 5
Procedure: (§4) Cells were quickly washed in ice-cold phosphate-buffered saline (PBS) and lysed in extraction buffer containing 20 mM Hepes (pH 7.0), 1% Triton X-100, 150 mM NaCl, 10% glycerol, 1 mM EDTA, 2 mM EGTA, and 1 mM DTT, 5 mM Na3VO4, 5 mM NaF, 1 mM AEBSF, aprotinin (5 μg/mL), and leupeptin (5 μg/mL). After cen-trifugation at 12,000×g, the clarified cell extracts were used for immunoblotting. For re-blotting, the immunoblots were retrieved in a solution of 67 mM Tris (pH 6.7), 2% SDS, and 100 mM 2-mercaptoethanol at 60° C. for 30 min to remove antibodies and rinsed three times with a Tris-buffered saline (TBS) solution containing 1% Triton X-100. The retrieved membranes were subjected to new immunoblotting.
In human aortic endothelial cell (HAEC) and human pulmonary artery endothelial cell (PAEC) in which PrxII was knocked out by transfecting the PrxII siRNA, the ability of test compounds to replace the cellular function of PrxII was evaluated. That is, the efficacy of the new compounds was verified in terms of signaling pathways induced by VEGF that regulates the growth and migration of vascular endothelial cells in the aorta and pulmonary artery. Activation of VEGF-induced signaling pathway was analyzed by an immunoblot method using an antibody that specifically recognizes phosphorylation of Tyr 1175, which is a major phosphorylation site on VEGF receptor-2 (VEGFR2).

[8] = tested on: Tyr 857 phosphorylation of PDGF receptor-β (PDGFRβ) in HASMC; test: Immunoblot of PDGF-mediated signaling in PrxII knock-down HASMC; format: cell-based, human; settings: HASMC depleted of PrxII expression, FIG. 2
Procedure: as §4
In human aortic smooth muscle cell (HASMC) and human pulmonary artery smooth muscle cell (PASMC) in which PrxII was knocked out by transfecting the PrxII siRNA, the ability of test compounds to replace the cellular function of PrxII was evaluated. That is, the efficacy of the new compounds was verified in terms of signaling pathways induced by PDGF that regulates the growth and migration of vascular smooth muscle cells in the aorta and pulmonary artery. Activation of PDGF-induced signaling pathway was analyzed by an immunoblot method using an antibody that specifically recognizes phosphorylation of Tyr 857, which is a major phosphorylation site on PDGF receptor (PDGFRβ).

[9] = tested on: human aortic endothelial cell (HAEC); test: VEGF-induced proliferation assay, HAEC (PrxII siRNA); format: cell-based; settings: for Degree of HAEC proliferation: VEGF-A 25 ng/mL, percent of untreated control
Procedure: as §1, with “HAECs” for “HASMCs”, “PAECs” for “PASMCs”, “EBM” for “SmBM”, “VEGF-A” for “PDGF-BB”
as §2
In human aortic endothelial cell (HAEC) and human pulmonary artery endothelial cell (PAEC) in which PrxII was knocked out by transfecting the PrxII siRNA, the ability of test compounds to augment the VEGF-induced proliferation of vascular endothelial cells was evaluated. In Table 7, the degree of proliferation in the compound-treated groups is expressed as percent of the degree of proliferation in untreated control group. The effective concentrations of test compounds increasing cell proliferation by 50% (EC50) is also listed.

Compound | Peroxidase activity for H2O2 reduction [1] [nmol/min] | CC50 (in vitro [2]) [nM] | CC50 (in vitro [3]) [nM] | EC50 (NIH-3T3 cells) [nM] | Midpoint redox potential (E m) [5] [mV] | Effect on phosphorylation of Tyr 1175 on VEGFR2 [7] | Effect on phosphorylation of Tyr 857 on PDGFR [8] | other results
CN1C(=O)C2CSSC1(C)C(=O)N2Cc1cnn(C)c1 (centres unmarked) [Compound 13, 1,8-dimethyl-6-((1-methyl-1H-pyrazol-4-yl)methyl)-2,3-dithia-6,8-diazabicyclo[3.2.2]nonane-7,9-dione] | 4.78 | > 500000 | > 500000 |  |  |  |  | 
Cc1cccc(CN2C(=O)C3(C)SSCC2C(=O)N3C)n1 (centres unmarked) [Compound 12, 1,8-dimethyl-6-((6-methylpyridin-2-yl)methyl)-2,3-dithia-6,8-diazabicyclo[3.2.2]nonane-7,9-dione] | 4.94 | > 500000 | > 500000 |  |  |  |  | 
C=CCN1C(=O)C2SSC1C(=O)N2CC=C [Control compound (A5), reference compound] | 4.25 | 62300 |  | 15.2 |  |  |  | 
CN1CCN2C(=O)C3CSSC2(C1)C(=O)N3Cc1ccccc1 (centres unmarked) [Compound 21, 12-benzyl-9-methylhexahydro-5H-4,10a-(epiminomethano)pyrazino[2,1-c][1,2,4]dithi azepine-5,11-dione] | 8.38 |  |  |  | −272.86 | strongly abolish the phosphorylation | strongly abolish the phosphorylation | Degree of HASMC proliferation ([4]; 2.5 nM): 88.1%; Degree of HASMC proliferation ([4]; 5 nM): 63.9%; Degree of HASMC proliferation ([4]; 10 nM): 27.2%; Degree of HASMC proliferation ([4]; 25 nM): 4.0%; IC50 ([4]; Homo sapiens, HASMC, 50% growth inhibition, PDGF-stimulated): 6.41 nM; Degree of PASMC proliferation ([6]; 2.5 nM): 69.9%; Degree of PASMC proliferation ([6]; 5 nM): 49.6%; Degree of PASMC proliferation ([6]; 10 nM): 18.7%; Degree of PASMC proliferation ([6]; 25 nM): 6.0%; Degree of PASMC proliferation ([6]; 50 nM): 7.1%; Degree of PASMC proliferation ([6]; 100 nM): 0.0%; IC50 ([6]; Homo sapiens, PASMC, 50% growth inhibition, PDGF-stimulated): 4.51 nM; Degree of HAEC proliferation ([9]; 2.5 nM): 105.0%; Degree of HAEC proliferation ([9]; 5 nM): 122.7%; Degree of HAEC proliferation ([9]; 10 nM): 154.6%; Degree of HAEC proliferation ([9]; 25 nM): 190.1%; Degree of HAEC proliferation ([9]; 50 nM): 202.0%; Degree of HAEC proliferation ([9]; 100 nM): 141.2%; EC50 ([9]; Homo sapiens, Endothelial cell, effective concentration increasing cell proliferation by 50%, VEGF-stimulated): 9.96 nM
CN1C(=O)C2CSSC1(C)C(=O)N2Cc1ccccc1 (centres unmarked) [Compound 2, 6-benzyl-1,8-dimethyl-2,3-dithia-6,8-diazabicyclo[3.2.2]nonane-7,9-dione] | 5.05 | > 500000 |  | 6.47 | −293.19 | strongly abolish the phosphorylation | strongly abolish the phosphorylation | 
CN1C(=O)C2CSSC1(C)C(=O)N2Cc1ccccn1 (centres unmarked) [Compound 6, 1,8-dimethyl-6-(pyridin-2-ylmethyl)-2,3-dithia-6,8-diazabicyclo[3.2.2]nonan-7,9-dione] | 4.57 | 341000 |  | 5.99 | −290.39 | strongly abolish the phosphorylation | strongly abolish the phosphorylation | 
